One assay concerns U87MG EGFRvA. In words: Cell growth suppression assay (CCK-8) using small molecular inhibitors against EGFR. The class given is cell-based, human. The protocol:
(§1) Methods: cells in the log-phase growth were plated in 96-well plates with 3000 cells/well. […] The medium were replaced with fresh medium containing 10% CCK-8 reagents and incubated for another 2 h. The OD450 value was then measured.

In the next assay the test system is U87MG EGFRwt. Described as above. The class given is cell-based, human. To be noted: U87MG EGFRwt cells, 72 h with inhibitor, CCK-8 OD450. On the procedure:
as §1

Molecules are shown by their SMILES.

For `C#Cc1cccc(Nc2ncnc3cc(OCCOC)c(OCCOC)cc23)c1` [Erlotinib], the “sensitivity of cell line stably expressing EGFRvA compared with cell line stably expressing EGFR” value with U87MG EGFRvA (FIG. 7) is given as “lower sensitivity”.
Take `COc1cc2ncnc(Nc3cccc(Cl)c3)c2cc1OC` [AG1478]: the IC50 in the assay with U87MG EGFRwt amounted to 0.89 µM; in the assay on U87MG EGFRvA (U87MG EGFRvA cells, 72 h with inhibitor, CCK-8 OD450) it was 4.06 µM. Besides, in the assay on U87MG EGFRvA (U87MG EGFRvA versus U87MG EGFRwt), the “IC50 ratio (EGFRvA/EGFRwt)” value was found to be 4.56.

For the origin of these results see patent publication US8703917B2, “Epidermal growth factor receptor variants and pharmaceutical compositions thereof” (Shanghai Cancer Institute, priority 2010, dated 2014).
